Where two headings read alike, the source gives them in different places.

Data set [1] deals with 4T1 cells. The experiment in a line: Ruthenium uptake / cell luminescence measured by flow cytometry. As to conditions: 4T1, [Ru-complex] = 2 µM, 24 h, medium without or with serum (2 %). Type of data set: cell-based. The procedure:
4T1 cells were seeded in a 24-well plate with a density of 2 × 10^5 cells per cm^2. 24 h after the seeding Ru(II) compounds were added at 2 µM concentration and incubated for 24 h in medium with or without serum (2 %). Then cells were washed with PBS, detached by trypsin treatment and analyzed by BDLSR cytometer with an excitation wavelength of 488 nm and an emission wavelength of 575 ± 13 nm.
In general terms: In flow cytometry, cells or beads pass a laser one at a time.

For data set [2], the target named is human serum albumin (HSA) (Homo sapiens, UniProt P02768). Description: Luminescence quantum yield and lifetime in the presence of HSA. The method, then:
The protein stock solution was prepared by dissolving human serum albumin (HSA) in water and its concentration was determined spectrophotometrically from the molar absorptivity of 4.4 × 10^4 cm^−1 M^−1 at 280 nm. The emission spectra were recorded between 305 and 500 nm upon excitation at 295 nm resulting in selective excitation of tryptophan residue of HSA. The average of three scans was subjected to smoothing and the fluorescence intensities were corrected due to dilution effects. Protein-binding experiments were conducted by measuring fluorescence spectra of protein solution (1 μM) in the presence of different amounts of ruthenium compounds (0–10 μM) in PBS buffer pH 7.4 at 37 °C. Ru–protein solutions were allowed to incubate for 5 min before the emission spectra were recorded. The quantum yield and lifetime of luminescence for ruthenium complexes in the present of HSA (1 μM) was measured using the same procedure as described for ruthenium complexes alone (the HSA/Ru-complex ratio is given in the figure caption).

The conditions of data set [3]: aqueous solution, ref [11], cited from earlier work.

human serum albumin (HSA), sequence (P02768 25-609): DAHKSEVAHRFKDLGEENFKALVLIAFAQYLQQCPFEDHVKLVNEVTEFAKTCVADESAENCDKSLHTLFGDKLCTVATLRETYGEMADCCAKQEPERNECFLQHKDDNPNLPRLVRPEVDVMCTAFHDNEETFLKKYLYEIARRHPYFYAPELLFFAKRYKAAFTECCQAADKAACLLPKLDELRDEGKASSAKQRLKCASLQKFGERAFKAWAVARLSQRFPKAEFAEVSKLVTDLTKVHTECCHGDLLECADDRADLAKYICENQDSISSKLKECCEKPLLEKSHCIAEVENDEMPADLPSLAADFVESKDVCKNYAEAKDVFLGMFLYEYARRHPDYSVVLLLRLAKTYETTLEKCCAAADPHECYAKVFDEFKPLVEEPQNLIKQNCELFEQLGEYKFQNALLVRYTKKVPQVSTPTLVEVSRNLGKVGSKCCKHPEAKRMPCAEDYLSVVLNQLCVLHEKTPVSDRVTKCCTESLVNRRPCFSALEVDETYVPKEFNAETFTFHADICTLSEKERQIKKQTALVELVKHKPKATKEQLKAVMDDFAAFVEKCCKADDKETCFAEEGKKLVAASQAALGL

Turning to “[Ru(dip)2(1,3-dicyclohexyl-1-[4-carbonyl-(4′-methyl-2,2′-bipyridyl)]-urea)]Cl2 [[Ru(dip)2(CH3bpy-DCU)]^2+]”, the “luminescence of cells (flow cytometry)” value in data set [1] is “highest luminescence”. The “φ, quantum yield of luminescence” value in data set [2] (PBS pH 7.4, [HSA]/[Ru] = 1) came out at 0.0472; in data set [2] (PBS pH 7.4, in the absence of HSA) it was 0.0076.
Consider `O=[N+]([O-])c1nccn1CCCc1ccnc(-c2ccccn2)c1.[Ru+2].c1ccc(-c2ccnc3c2ccc2c(-c4ccccc4)ccnc23)cc1.c1ccc(-c2ccnc3c2ccc2c(-c4ccccc4)ccnc23)cc1` [[Ru(dip)2(bpy-NitroIm)]^2+], for which, in data set [3] (air-equilibrated conditions), the “τ, luminescence lifetime” value is recorded as 810 ± 10 ns and the “φ, quantum yield of luminescence” value is listed as 0.0103 ± 0.0004. In data set [3] (deoxygenated conditions), the “τ, luminescence lifetime” value was 1.91 ± 0.01 µs and the “φ, quantum yield of luminescence” value is 0.0341 ± 0.0004.

The record behind these values is article PMC4240912, “Multifaceted interplay between lipophilicity, protein interaction and luminescence parameters of non-intercalative ruthenium(II) polypyridyl complexes controlling cellular imaging and cytotoxic properties” (Journal of Biological Inorganic Chemistry, 2014).
